Data: ChEMBL document CHEMBL1201862, “PubChem BioAssay data set” (2004)
The source made the active and inactive calls.

Experiments:
[1] = target: Induced myeloid leukemia cell differentiation protein Mcl-1 (Homo sapiens, UniProt Q07820); format: functional
Caspase-6 = Caspase-6 (Homo sapiens, UniProt P55212); test: inhibition of CASP6 peptide cleavage – biochemical, VEID-R110 fluorescence, cherry-pick, dose response (AID 720632)
Aminopeptidase N = target: T1, Aminopeptidase N (Plasmodium falciparum FcB1/Columbia, UniProt O96935); test: malaria alanyl aminopeptidase activity blockers – biochemical, fluorogenic H-Leu-NHMec substrate, 1536-well (AID 1445); parameters: species or system Plasmodium falciparum 3D7, 3D7
T1 sequence (O96935 whole entry): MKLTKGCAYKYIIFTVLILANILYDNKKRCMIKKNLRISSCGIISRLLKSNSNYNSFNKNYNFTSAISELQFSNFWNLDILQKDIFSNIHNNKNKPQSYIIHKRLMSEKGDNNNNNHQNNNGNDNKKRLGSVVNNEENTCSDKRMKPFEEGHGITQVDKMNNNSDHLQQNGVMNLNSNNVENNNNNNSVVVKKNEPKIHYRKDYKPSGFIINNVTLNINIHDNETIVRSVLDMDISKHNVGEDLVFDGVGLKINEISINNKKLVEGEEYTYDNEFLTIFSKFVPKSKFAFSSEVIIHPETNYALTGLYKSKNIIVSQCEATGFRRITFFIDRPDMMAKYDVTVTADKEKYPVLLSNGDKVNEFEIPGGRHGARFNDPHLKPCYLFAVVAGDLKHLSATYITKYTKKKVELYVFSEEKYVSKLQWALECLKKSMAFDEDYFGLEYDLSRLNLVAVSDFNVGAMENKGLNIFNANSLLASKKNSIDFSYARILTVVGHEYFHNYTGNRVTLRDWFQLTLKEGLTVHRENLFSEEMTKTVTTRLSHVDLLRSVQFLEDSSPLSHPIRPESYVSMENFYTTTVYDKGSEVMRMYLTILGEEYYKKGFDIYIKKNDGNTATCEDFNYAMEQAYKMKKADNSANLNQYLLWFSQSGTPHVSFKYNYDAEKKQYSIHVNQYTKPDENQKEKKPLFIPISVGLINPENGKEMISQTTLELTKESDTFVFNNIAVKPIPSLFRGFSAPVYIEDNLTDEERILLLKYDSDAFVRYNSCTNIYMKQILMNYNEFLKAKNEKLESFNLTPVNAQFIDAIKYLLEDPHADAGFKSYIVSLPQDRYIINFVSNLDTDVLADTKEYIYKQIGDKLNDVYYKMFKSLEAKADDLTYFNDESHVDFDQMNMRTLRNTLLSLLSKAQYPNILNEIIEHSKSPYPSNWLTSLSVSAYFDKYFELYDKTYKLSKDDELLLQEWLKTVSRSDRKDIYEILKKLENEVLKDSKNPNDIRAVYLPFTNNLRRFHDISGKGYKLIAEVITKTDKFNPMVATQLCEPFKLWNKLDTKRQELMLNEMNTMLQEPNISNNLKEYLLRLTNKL

[2] = target: E3 ubiquitin-protein ligase XIAP (Homo sapiens, UniProt P98170); test: Counter Screen using XIAP-Bir3 for Chemical Antagonists of Bir1/2 domains of IAP-family anti-apoptotic proteins. [Related pubchem assays (depositor defined):AID1018, AID1449, AID1514, AID1638, AID1749, AID1750, AID488957, AID488963]
Sequence of E3 ubiquitin-protein ligase XIAP (P98170 whole entry): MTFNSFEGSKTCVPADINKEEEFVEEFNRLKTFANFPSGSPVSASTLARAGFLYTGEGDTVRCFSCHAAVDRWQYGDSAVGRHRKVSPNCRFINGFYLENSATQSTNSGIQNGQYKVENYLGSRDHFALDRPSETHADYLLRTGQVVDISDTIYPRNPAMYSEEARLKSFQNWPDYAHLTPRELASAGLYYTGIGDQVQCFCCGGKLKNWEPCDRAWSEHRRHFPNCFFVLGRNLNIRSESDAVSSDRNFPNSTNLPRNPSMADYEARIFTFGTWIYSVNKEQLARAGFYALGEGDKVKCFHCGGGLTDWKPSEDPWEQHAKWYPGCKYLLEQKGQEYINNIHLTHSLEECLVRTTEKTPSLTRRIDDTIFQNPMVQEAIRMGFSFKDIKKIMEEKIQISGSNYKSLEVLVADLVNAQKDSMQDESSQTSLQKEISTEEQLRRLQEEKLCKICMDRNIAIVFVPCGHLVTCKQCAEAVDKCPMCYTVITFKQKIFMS

Genome polyprotein = Genome polyprotein (dengue virus type 2, UniProt P29990); test: flavivirus cap methylation enzyme inhibition – biochemical, confirmation dose response, primary screen (AID 588689); format: functional
Sequence of Genome polyprotein (P29990 2492-3391 limits assumed): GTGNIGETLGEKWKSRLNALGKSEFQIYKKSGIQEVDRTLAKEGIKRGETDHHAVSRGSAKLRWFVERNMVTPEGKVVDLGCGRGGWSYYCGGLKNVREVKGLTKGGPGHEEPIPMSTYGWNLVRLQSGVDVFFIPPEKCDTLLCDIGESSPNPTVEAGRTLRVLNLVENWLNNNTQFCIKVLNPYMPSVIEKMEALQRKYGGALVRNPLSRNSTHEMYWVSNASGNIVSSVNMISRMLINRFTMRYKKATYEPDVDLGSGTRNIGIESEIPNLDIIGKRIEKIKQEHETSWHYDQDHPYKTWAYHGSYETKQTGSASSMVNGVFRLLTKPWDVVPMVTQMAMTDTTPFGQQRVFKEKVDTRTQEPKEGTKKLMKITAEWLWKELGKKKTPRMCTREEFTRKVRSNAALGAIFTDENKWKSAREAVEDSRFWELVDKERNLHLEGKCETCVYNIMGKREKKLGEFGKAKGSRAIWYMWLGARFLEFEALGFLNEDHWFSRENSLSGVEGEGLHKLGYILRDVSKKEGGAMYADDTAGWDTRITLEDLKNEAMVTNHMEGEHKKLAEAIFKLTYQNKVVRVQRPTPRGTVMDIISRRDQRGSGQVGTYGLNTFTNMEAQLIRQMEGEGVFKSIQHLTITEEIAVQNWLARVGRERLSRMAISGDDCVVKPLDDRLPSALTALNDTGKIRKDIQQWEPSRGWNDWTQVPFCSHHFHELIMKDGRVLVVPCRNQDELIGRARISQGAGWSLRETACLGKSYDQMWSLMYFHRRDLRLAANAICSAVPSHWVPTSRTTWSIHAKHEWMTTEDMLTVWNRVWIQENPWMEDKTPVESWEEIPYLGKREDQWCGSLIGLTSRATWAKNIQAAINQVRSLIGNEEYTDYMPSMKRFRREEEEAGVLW

[3] = target: T2, Long-chain-fatty-acid--AMP ligase FadD28 (Mycobacterium tuberculosis, UniProt P9WQ59); test: Fluorescence polarization aasay to screen for inhibitors that compete for the binding of FadD28 to a bisubstrate Measured in Biochemical System Using Plate Reader - 2147-01_Inhibitor_Dose_CherryPick_Activity.; format: functional, Mycobacterium tuberculosis H37Rv
T2 sequence (P9WQ59 whole entry): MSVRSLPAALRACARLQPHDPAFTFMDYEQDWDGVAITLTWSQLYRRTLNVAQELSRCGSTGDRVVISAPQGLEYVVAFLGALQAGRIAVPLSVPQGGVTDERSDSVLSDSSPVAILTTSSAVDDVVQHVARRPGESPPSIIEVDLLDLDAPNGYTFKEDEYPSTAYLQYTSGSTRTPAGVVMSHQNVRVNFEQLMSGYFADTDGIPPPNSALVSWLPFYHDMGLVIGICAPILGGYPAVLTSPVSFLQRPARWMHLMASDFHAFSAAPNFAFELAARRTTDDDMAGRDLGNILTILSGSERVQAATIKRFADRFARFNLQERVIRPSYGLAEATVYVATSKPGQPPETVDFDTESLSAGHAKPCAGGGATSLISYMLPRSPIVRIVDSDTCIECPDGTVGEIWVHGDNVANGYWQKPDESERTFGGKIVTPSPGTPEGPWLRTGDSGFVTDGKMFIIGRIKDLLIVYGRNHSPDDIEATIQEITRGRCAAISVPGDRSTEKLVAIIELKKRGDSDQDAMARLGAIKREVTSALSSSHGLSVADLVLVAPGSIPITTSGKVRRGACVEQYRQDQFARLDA

[4] = target: Bifunctional protein GlmU (Mycobacterium tuberculosis, UniProt P9WMN3); test: Inhibitors of Mycobacterial Glucosamine-1-phosphate acetyl transferase (GlmU). Secondary screen.; parameters: species or system Mycobacterium tuberculosis H37Rv
Sequence of Bifunctional protein GlmU (P9WMN3 whole entry): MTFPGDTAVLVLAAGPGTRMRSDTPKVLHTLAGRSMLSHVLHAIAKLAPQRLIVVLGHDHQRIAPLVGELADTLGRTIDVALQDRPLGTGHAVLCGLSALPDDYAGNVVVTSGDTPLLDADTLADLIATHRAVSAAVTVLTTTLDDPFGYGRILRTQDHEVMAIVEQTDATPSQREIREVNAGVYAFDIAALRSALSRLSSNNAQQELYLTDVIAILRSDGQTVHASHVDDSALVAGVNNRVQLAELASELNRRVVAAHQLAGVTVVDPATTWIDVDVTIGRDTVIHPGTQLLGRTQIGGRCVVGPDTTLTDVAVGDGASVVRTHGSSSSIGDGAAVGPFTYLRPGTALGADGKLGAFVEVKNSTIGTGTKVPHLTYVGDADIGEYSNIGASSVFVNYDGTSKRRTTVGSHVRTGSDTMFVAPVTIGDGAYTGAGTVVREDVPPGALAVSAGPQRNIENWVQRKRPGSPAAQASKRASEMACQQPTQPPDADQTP

INS1 = test: INS-1E survival protection against cytokine death – cell-based, luminescence, retest, dose response (AID 449756); format: functional; conditions: Rattus norvegicus;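 note: cell death triggered by IL-1 beta plus TNF-alpha plus IFN-gamma mixture; protective hits raise ATP signal compared with cytokine alone wells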
[5] = decrease of insulin promoter-GFP reporter – imaging, high-content screening, mouse beta cells (AID 1628); format: functional; conditions: MIN6
[6] = MIN6 cell viability loss – mouse insulinoma, cytotoxicity control, dose response (AID 2122); format: functional;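 note: confirmatory high-throughput counterscreen run to flag cytotoxic compounds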
[7] = target: E3 ubiquitin-protein ligase UHRF1 (Homo sapiens, UniProt Q96T88); test: Counterscreen for inhibitors of 5-meCpG-binding domain protein 2 (MBD2): TRFRET-based biochemical high throughput dose response assay to identify inhibitors of binding of ubiquitin-like with PHD and ring finger domains 1 (UHRF1) to methylated oligonucleotide.
Sequence of E3 ubiquitin-protein ligase UHRF1 (Q96T88 whole entry, the tested form may be a part): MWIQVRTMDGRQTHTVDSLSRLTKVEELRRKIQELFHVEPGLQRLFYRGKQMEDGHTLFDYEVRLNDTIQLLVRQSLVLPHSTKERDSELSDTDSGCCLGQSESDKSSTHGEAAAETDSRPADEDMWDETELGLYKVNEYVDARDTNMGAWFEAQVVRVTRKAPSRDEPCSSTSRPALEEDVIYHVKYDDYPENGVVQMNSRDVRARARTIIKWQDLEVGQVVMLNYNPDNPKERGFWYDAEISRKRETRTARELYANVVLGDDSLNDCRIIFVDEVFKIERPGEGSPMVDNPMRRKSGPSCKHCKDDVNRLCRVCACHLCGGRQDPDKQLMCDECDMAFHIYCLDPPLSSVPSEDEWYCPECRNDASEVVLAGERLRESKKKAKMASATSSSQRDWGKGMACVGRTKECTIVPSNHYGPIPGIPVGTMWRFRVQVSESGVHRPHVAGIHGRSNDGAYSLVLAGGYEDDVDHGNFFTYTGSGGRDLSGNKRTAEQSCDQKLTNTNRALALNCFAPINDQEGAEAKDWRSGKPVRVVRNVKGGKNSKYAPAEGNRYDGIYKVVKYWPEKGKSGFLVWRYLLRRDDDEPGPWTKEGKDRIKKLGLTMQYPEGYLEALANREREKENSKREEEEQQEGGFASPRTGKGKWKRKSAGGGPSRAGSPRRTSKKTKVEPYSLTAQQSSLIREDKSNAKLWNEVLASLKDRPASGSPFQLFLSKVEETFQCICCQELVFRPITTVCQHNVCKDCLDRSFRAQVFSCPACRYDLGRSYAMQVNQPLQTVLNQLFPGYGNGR

[8] = viability loss in A549 lung cells – cell-based, 24 h, CellTiter-Glo luminescence, cherry-picks, cytotoxicity control, dose response (AID 1053115); format: functional; conditions: A549, 24 h
[9] = luciferase signal loss, tTA control fusion, HeLa F-luc tTA cells, dry powder, counter-screen for HIV Env fusion inhibitor project, dose response (AID 687021); format: functional, cell-based
[10] = inhibition of Env-driven cell fusion – HIV entry, plate reader, dry powder, dose response (AID 687023); format: functional, cell-based

Sequence of Induced myeloid leukemia cell differentiation protein Mcl-1 (Q07820 whole entry): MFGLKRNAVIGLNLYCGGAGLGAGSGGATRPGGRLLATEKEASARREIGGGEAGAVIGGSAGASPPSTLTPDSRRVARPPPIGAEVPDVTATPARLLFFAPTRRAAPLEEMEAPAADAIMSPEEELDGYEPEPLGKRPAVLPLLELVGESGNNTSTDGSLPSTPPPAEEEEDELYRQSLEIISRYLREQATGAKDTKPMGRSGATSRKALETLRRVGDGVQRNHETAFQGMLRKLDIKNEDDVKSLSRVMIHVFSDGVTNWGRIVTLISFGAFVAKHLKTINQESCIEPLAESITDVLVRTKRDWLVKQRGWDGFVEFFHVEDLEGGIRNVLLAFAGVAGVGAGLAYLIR
Sequence of Caspase-6 (P55212 24-179 limits assumed): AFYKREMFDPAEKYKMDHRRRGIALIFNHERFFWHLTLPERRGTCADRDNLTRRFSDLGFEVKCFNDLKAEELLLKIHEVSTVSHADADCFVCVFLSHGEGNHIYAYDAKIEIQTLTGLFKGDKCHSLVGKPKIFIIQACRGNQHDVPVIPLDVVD
Sequence of Caspase-6 (P55212 194-293 limits assumed): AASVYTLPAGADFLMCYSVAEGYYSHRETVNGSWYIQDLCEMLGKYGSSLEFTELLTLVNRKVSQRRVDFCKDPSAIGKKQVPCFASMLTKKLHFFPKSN

For O=C(Nc1cccc(Oc2ccc(C(=O)O)c(C(=O)O)c2)c1)c1ccc(-c2ccccc2)cc1, the IC50 [1] was 4.44 µM (active), the AC50 (Caspase-6) was 15.7 µM (active) and the IC50 (Aminopeptidase N) was 44.7 µM (active). For the same compound, the IC50 [2] was > 20 µM (inactive), the IC50 (Genome polyprotein) was 20.5 µM (active) and the AC50 [3] was 82.4 µM (active). For the same compound, the IC50 [4] was 147 µM (active).
For [O-][Cl+3]([O-])([O-])[O-].c1ccc(-c2cc(-c3ccccc3)[n+](-c3ccccc3)c(-c3ccccc3)c2)cc1, the AC50 (INS1) was 2.59 µM (active), the IC50 [5] was 1.06 µM (active) and the IC50 [6] was 1.77 µM (active). For the same compound, the IC50 [7] was 14.3 µM (inactive).
With COc1ccccc1CN1CC[C@@H]2[C@H]1c1cc(C#Cc3ccccc3)ccc1N[C@@H]2CO the AC50 [8] was 46.8 µM (active).
In the case of CCOc1ccc(S(=O)(=O)NCc2ccccn2)cc1, the AC50 [9] is reported as > 70 µM (inactive) and the AC50 [10] is reported as > 70 µM (inactive).
